Measurements taken from article PMC2193921 (The Journal of Experimental Medicine, 2002).

Test system: highly tumor reactive A2/Melan-A multimer+ CD8+ T cell clones
Details: 4 h

CC[C@H](C)[C@H](NC(=O)CNC(=O)[C@H](C)NC(=O)[C@H](C)N)C(=O)NCC(=O)N[C@H](C(=O)N[C@@H](CC(C)C)C(=O)N[C@H](C(=O)N[C@H](C(=O)O)C(C)C)[C@@H](C)O)[C@@H](C)CC [Melan-A 27–35]
IC50: ~1 nM
